Here are results for eleven compounds from patent US20260125382A1, “COMPOUNDS FOR INHIBITING OR DEGRADING CDK2 AND/OR CDK9 AND MEDICINAL USE THEREOF” (KOREA RESEARCH INSTITUTE OF CHEMICAL TECHNOLOGY, priority 2022, published 2026).

One test has as its target T1, CDK9 (Homo sapiens, UniProt P50750).
T1 construct: endogenous in cells; host or cells: MDA-MB-231
Kind of test: CDK protein degradation activity (Western blotting), CDK9. Type of test: cell-based. To be noted: MDA-MB-231 cells, 16 hours, Western blot. A digest of the protocol: (§1)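 MDA-MB-231; cmpd 100 nM / 1 μM / 10 μM final vs DMSO, 16 h. Triton X-100 lysates (pH 7.5, phosphatase/protease inhibitors) → SDS-PAGE → Western blot, anti-CDK2, anti-CDK9, tubulin loading control; densitometry.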
For orientation: In western blotting, separated proteins are transferred to a membrane and probed.

In another test the target is T2, CDK2 (Homo sapiens, UniProt P24941).
T2 construct: endogenous in cells; host or cells: MDA-MB-231
Kind of test: CDK protein degradation activity (Western blotting), CDK2. The format is cell-based. To be noted: MDA-MB-231 cells, 16 hours, Western blot. A digest of the protocol: as §1

T1 sequence (P50750 whole entry): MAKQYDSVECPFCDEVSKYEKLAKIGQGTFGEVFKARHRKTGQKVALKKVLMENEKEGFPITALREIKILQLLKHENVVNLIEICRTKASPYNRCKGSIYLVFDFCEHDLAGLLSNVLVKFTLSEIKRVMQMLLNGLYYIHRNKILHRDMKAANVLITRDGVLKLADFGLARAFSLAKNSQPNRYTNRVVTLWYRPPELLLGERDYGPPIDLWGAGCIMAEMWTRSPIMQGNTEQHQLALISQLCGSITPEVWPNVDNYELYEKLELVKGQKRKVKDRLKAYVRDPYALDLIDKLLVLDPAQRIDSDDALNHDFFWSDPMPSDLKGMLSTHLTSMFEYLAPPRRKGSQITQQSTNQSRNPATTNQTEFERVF

Consider `O=C1CC[C@H](N2C(=O)c3ccc(NCC(=O)N4CCN(CC5CCN(c6ccc(Nc7ncnc8c7ncn8[C@H]7C[C@@H](NC(=O)c8c(Cl)cccc8Cl)C7)cc6)CC5)CC4)cc3C2=O)C(=O)N1` [Compound 312, 2,6-dichloro-N-((1s,3s)-3-(6-((4-(4-((4-((2-(2,6-dioxopiperidin-3-yl)-1,3-dioxoisoindolin-5-yl)glycyl)piperazin-1-yl)methyl)piperidin-1-yl)phenyl)amino)-9H-purin-9-yl)cyclobutyl)benzamide], for which, at CDK9, the “Enzyme degradation CDK9 (% remaining) @ 0.1 μM” value is given as 0/0/0%, the “Enzyme degradation CDK9 (% remaining) @ 1 μM” value is on record as 0/0/0% and the “Enzyme degradation CDK9 (% remaining) @ 10 μM” value is 0/0/0%. On CDK2, the “Enzyme degradation CDK2 (% remaining) @ 0.1 μM” value is on record as 10/10/10%, the “Enzyme degradation CDK2 (% remaining) @ 1 μM” value was 10/10/10% and the “Enzyme degradation CDK2 (% remaining) @ 10 μM” value is recorded as 10/10/10%.

As to `O=C1CC[C@H](N2C(=O)c3cc(F)c(N4CCC(CN5CCN(c6ccc(Nc7ncnc8c7ncn8C7CC(NC(=O)c8cccc(F)n8)C7)cc6)CC5)CC4)cc3C2=O)C(=O)N1` (stereo partly drawn) [Compound 428, N-((1s,3s)-3-(6-((4-(4-((1-(2-(2,6-dioxopiperidin-3-yl)-6-fluoro-1,3-dioxoisoindolin-5-yl)piperidin-4-yl)methyl)piperazin-1-yl)phenyl)amino)-9H-purin-9-yl)cyclobutyl)-6-fluoropicolinamide], at CDK9, the “Enzyme degradation CDK9 (% remaining) @ 0.1 μM” value is given as 0/0/0%, the “Enzyme degradation CDK9 (% remaining) @ 1 μM” value was 0/0/0% and the “Enzyme degradation CDK9 (% remaining) @ 10 μM” value is recorded as 0/0/0%. In addition, at CDK2, the “Enzyme degradation CDK2 (% remaining) @ 0.1 μM” value is reported as 10/10/10%, the “Enzyme degradation CDK2 (% remaining) @ 1 μM” value is on record as 10/10/10% and the “Enzyme degradation CDK2 (% remaining) @ 10 μM” value is listed as 10/10/10%.

Consider `N#Cc1cccc(C(=O)N[C@H]2C[C@@H](n3cnc4c(Nc5ccc(N6CCN(CC7CCN(c8cc9c(cc8F)C(=O)N(C8CCC(=O)NC8=O)C9=O)CC7)CC6)cc5)ncnc43)C2)n1` (stereo partly drawn) [Compound 414, 6-cyano-N-((1s,3s)-3-(6-((4-(4-((1-(2-(2,6-dioxopiperidin-3-yl)-6-fluoro-1,3-dioxoisoindolin-5-yl)piperidin-4-yl)methyl)piperazin-1-yl)phenyl)amino)-9H-purin-9-yl)cyclobutyl)picolinamide], for which, on CDK9, the “Enzyme degradation CDK9 (% remaining) @ 0.1 μM” value is 10/10/10%, the “Enzyme degradation CDK9 (% remaining) @ 1 μM” value was 10/10/10% and the “Enzyme degradation CDK9 (% remaining) @ 10 μM” value is 10/10/10%. In addition, at CDK2, the “Enzyme degradation CDK2 (% remaining) @ 0.1 μM” value is on record as 20/20/20%, the “Enzyme degradation CDK2 (% remaining) @ 1 μM” value is listed as 20/20/20% and the “Enzyme degradation CDK2 (% remaining) @ 10 μM” value is given as 20/20/20%.

In the case of `O=C1CC[C@H](N2C(=O)c3cccc(OCC(=O)N4CCC(CN5CCC(CNc6ncnc7c6ncn7C6CC(NC(=O)c7c(Cl)cccc7Cl)C6)CC5)CC4)c3C2=O)C(=O)N1` (stereo partly drawn) [Compound 168, 2,6-dichloro-N-((1s,3s)-3-(6-(((1-((1-(2-((2-(2,6-dioxopiperidin-3-yl)-1,3-dioxoisoindolin-4-yl)oxy)acetyl)piperidin-4-yl)methyl)piperidin-4-yl)methyl)amino)-9H-purin-9-yl)cyclobutyl)benzamide], on CDK9, the “Enzyme degradation CDK9 (% remaining) @ 0.1 μM” value turned out to be 80%, the “Enzyme degradation CDK9 (% remaining) @ 1 μM” value is on record as 40% and the “Enzyme degradation CDK9 (% remaining) @ 10 μM” value came out at 10%. On CDK2, the “Enzyme degradation CDK2 (% remaining) @ 0.1 μM” value came out at 50%, the “Enzyme degradation CDK2 (% remaining) @ 1 μM” value came to 10% and the “Enzyme degradation CDK2 (% remaining) @ 10 μM” value was found to be 10%.

On to `Cc1cccc(C(=O)N[C@H]2C[C@@H](n3cnc4c(NCc5ccc(OCCCN6CCN(c7cccc8c7C(=O)N([C@H]7CCC(=O)NC7=O)C8=O)CC6)cc5)ncnc43)C2)n1` [Compound 117, N-((1s,3s)-3-(6-((4-(3-(4-(2-(2,6-dioxopiperidin-3-yl)-1,3-dioxoisoindolin-4-yl)piperazin-1-yl)propoxy)benzyl)amino)-9H-purin-9-yl)cyclobutyl)-6-methylpicolinamide], for which, on CDK9, the “Enzyme degradation CDK9 (% remaining) @ 0.1 μM” value is 10%, the “Enzyme degradation CDK9 (% remaining) @ 1 μM” value stood at 10% and the “Enzyme degradation CDK9 (% remaining) @ 10 μM” value came out at 0%. On CDK2, the “Enzyme degradation CDK2 (% remaining) @ 0.1 μM” value is 80/80/80%, the “Enzyme degradation CDK2 (% remaining) @ 1 μM” value is 80/80/80% and the “Enzyme degradation CDK2 (% remaining) @ 10 μM” value is given as 80/80/80%.

Consider `O=C1CC[C@H](N2C(=O)c3ccc(N4CCC(CCN5CCN(c6ccc(Nc7ncnc8c7ncn8[C@H]7C[C@@H](NC(=O)c8c(Cl)cccc8Cl)C7)cc6)CC5)CC4)cc3C2=O)C(=O)N1` [Compound 405, 2,6-dichloro-N-((1s,3s)-3-(6-((4-(4-(2-(1-(2-(2,6-dioxopiperidin-3-yl)-1,3-dioxoisoindolin-5-yl)piperidin-4-yl)ethyl)piperazin-1-yl)phenyl)amino)-9H-purin-9-yl)cyclobutyl)benzamide], for which, at CDK9, the “Enzyme degradation CDK9 (% remaining) @ 0.1 μM” value is given as 0/0/0%, the “Enzyme degradation CDK9 (% remaining) @ 1 μM” value was 0/0/0% and the “Enzyme degradation CDK9 (% remaining) @ 10 μM” value is reported as 0/0/0%. In addition, on CDK2, the “Enzyme degradation CDK2 (% remaining) @ 0.1 μM” value is given as 50/50/50%, the “Enzyme degradation CDK2 (% remaining) @ 1 μM” value is 50/50/50% and the “Enzyme degradation CDK2 (% remaining) @ 10 μM” value is given as 50/50/50%.

In the case of `O=C1CC[C@H](N2C(=O)c3ccc(NCC(=O)N4CCC(CN5CCN(c6ccc(Nc7ncnc8c7ncn8C7CC(NC(=O)Cc8ccccc8)C7)cc6)CC5)CC4)cc3C2=O)C(=O)N1` (stereo partly drawn) [Compound 177, N-((1s,3s)-3-(6-((4-(4-((1-((2-(2,6-dioxopiperidin-3-yl)-1,3-dioxoisoindolin-5-yl)glycyl)piperidin-4-yl)methyl)piperazin-1-yl)phenyl)amino)-9H-purin-9-yl)cyclobutyl)-2-phenylacetamide], at CDK9, the “Enzyme degradation CDK9 (% remaining) @ 0.1 μM” value is 30%, the “Enzyme degradation CDK9 (% remaining) @ 1 μM” value is given as 0% and the “Enzyme degradation CDK9 (% remaining) @ 10 μM” value is 0%. Besides, on CDK2, the “Enzyme degradation CDK2 (% remaining) @ 0.1 μM” value was determined as 50%, the “Enzyme degradation CDK2 (% remaining) @ 1 μM” value is 10% and the “Enzyme degradation CDK2 (% remaining) @ 10 μM” value is on record as 10%.

As for `O=C1CC[C@H](n2nnc3ccc(N4CCN(CC5CCN(c6ccc(Nc7ncnc8c7ncn8C7CC(NC(=O)c8c(Cl)cccc8Cl)C7)cc6)CC5)CC4)cc3c2=O)C(=O)N1` (stereo partly drawn) [Compound 370, 2,6-dichloro-N-((1s,3s)-3-(6-((4-(4-((4-(3-(2,6-dioxopiperidin-3-yl)-4-oxo-3,4-dihydrobenzo[d][1,2,3]triazin-6-yl)piperazin-1-yl)methyl)piperidin-1-yl)phenyl)amino)-9H-purin-9-yl)cyclobutyl)benzamide], at CDK9, the “Enzyme degradation CDK9 (% remaining) @ 0.1 μM” value is listed as 0/0/0%, the “Enzyme degradation CDK9 (% remaining) @ 1 μM” value was 0/0/0% and the “Enzyme degradation CDK9 (% remaining) @ 10 μM” value is 0/0/0%. Also, at CDK2, the “Enzyme degradation CDK2 (% remaining) @ 0.1 μM” value is 0/0/0%, the “Enzyme degradation CDK2 (% remaining) @ 1 μM” value is 0/0/0% and the “Enzyme degradation CDK2 (% remaining) @ 10 μM” value is given as 0/0/0%.

Consider `O=C1CC[C@@H](c2ccc(OCC(=O)N3CCC(CC(=O)N4CCN(c5ccc(Nc6ncnc7c6ncn7C6CC(NC(=O)Cc7ccccc7)C6)cc5)CC4)CC3)cc2)C(=O)N1` (stereo partly drawn) [Compound 203, N-((1s,3s)-3-(6-((4-(4-(2-(1-(2-(4-(2,6-dioxopiperidin-3-yl)phenoxy)acetyl)piperidin-4-yl)acetyl)piperazin-1-yl)phenyl)amino)-9H-purin-9-yl)cyclobutyl)-2-phenylacetamide], for which, on CDK9, the “Enzyme degradation CDK9 (% remaining) @ 0.1 μM” value was 20%, the “Enzyme degradation CDK9 (% remaining) @ 1 μM” value is 0% and the “Enzyme degradation CDK9 (% remaining) @ 10 μM” value is reported as 0%. Further, at CDK2, the “Enzyme degradation CDK2 (% remaining) @ 0.1 μM” value worked out at 70%, the “Enzyme degradation CDK2 (% remaining) @ 1 μM” value stood at 40% and the “Enzyme degradation CDK2 (% remaining) @ 10 μM” value turned out to be 70%.

On to `O=C1CC[C@H](N2C(=O)C=C(N3CCC(C(=O)N4CCC5(CC4)CC(N4CCN(c6ccc(Nc7ncnc8c7ncn8C7CC(NC(=O)Cc8ccccc8)C7)cc6)CC4)C5)CC3)C2=O)C(=O)N1` (stereo partly drawn) [Compound 193, N-((1s,3s)-3-(6-((4-(4-(7-(1-(1-(2,6-dioxopiperidin-3-yl)-2,5-dioxo-2,5-dihydro-1H-pyrrol-3-yl)piperidin-4-carbonyl)-7-azaspiro[3.5]nonan-2-yl)piperazin-1-yl)phenyl)amino)-9H-purin-9-yl)cyclobutyl)-2-phenylacetamide], for which, at CDK9, the “Enzyme degradation CDK9 (% remaining) @ 0.1 μM” value turned out to be 0%, the “Enzyme degradation CDK9 (% remaining) @ 1 μM” value is reported as 10% and the “Enzyme degradation CDK9 (% remaining) @ 10 μM” value was 10%. On CDK2, the “Enzyme degradation CDK2 (% remaining) @ 0.1 μM” value was determined as 20%, the “Enzyme degradation CDK2 (% remaining) @ 1 μM” value came out at 20% and the “Enzyme degradation CDK2 (% remaining) @ 10 μM” value is listed as 10%.

As to `O=C1CC[C@H](N2C(=O)c3ccc(N4CCC(CN5CCN(c6ccc(Nc7ncnc8c7ncn8[C@H]7C[C@@H](NC(=O)Cc8ccccc8)C7)cc6)CC5)CC4)cc3C2=O)C(=O)N1` [Compound 179, N-((1s,3s)-3-(6-((4-(4-((1-(2-(2,6-dioxopiperidin-3-yl)-1,3-dioxoisoindolin-5-yl)piperidin-4-yl)methyl)piperazin-1-yl)phenyl)amino)-9H-purin-9-yl)cyclobutyl)-2-phenylacetamide], on CDK9, the “Enzyme degradation CDK9 (% remaining) @ 0.1 μM” value worked out at 10%, the “Enzyme degradation CDK9 (% remaining) @ 1 μM” value turned out to be 0% and the “Enzyme degradation CDK9 (% remaining) @ 10 μM” value amounted to 0%. Also, at CDK2, the “Enzyme degradation CDK2 (% remaining) @ 0.1 μM” value was 10%, the “Enzyme degradation CDK2 (% remaining) @ 1 μM” value is 0% and the “Enzyme degradation CDK2 (% remaining) @ 10 μM” value came to 0%.
